Data from patent US6897244B2, “Dihydronootkatone and tetrahydronootkatone as repellents to arthropods” (Board of Supervisors of Louisiana State University and …, priority 2002, dated 2005).

Tests used:
fleas = settings: previously demonstrated, U.S. Ser. No. 09/932,555; cited from earlier work
[1] = test system: Formosan subterranean termites; test: Petri dish treated/untreated sand bioassay for repelling activity against termites; format: in vivo, Coptotermes formosanus; design: key to percent of termites on untreated sand vs expected value of 50% (Chi-Square, p≦0.05): “−” indicates the test was not significantly different from the expected value; “+” indicates the test was significantly different from the expected value
Description: A carton nest (colony A) of Formosan subterranean termites was collected in Algiers, Louisiana in November 1997, and held in 250-liter cans. The cans were filled with pine as a food source, and kept at a temperature range of 24-26° C. Moistened corrugated cardboard rolls were used to retrieve termites from the cans. Once the termites migrated to the cardboard rolls, they were gently knocked from the cardboard rolls into clean rectangular plastic trays (40 cm×50 cm). Retrieved termites were isolated from debris by allowing them to cling to sheets of moistened paper towels. The average weight of each termite was 1.21 mg.
To test for effectiveness of nootkatone, 1,10-dihydronootkatone and tetrahydronootkatone in repelling termites, a bioassay was conducted using Petri dishes (5 cm diameter and 1 cm height). To ensure adequate moisture for the termites, 1 ml of a hot agar solution (1.5% in H2O) was spread on the bottom of the Petri dish. After the agar cooled, sand that was treated as described below was spread on the bottom of the Petri dish. For the treated sand, purified 1,10-dihydronootkatone or tetrahydronootkatone were dissolved in 2 ml ethanol, and then diluted to achieve final concentrations of 1, 2, 5, 12.5, 25, 50, and 100 μg/g sand. The solution was mixed with 1 g sand that had been autoclaved and cooled. The control sand was autoclaved sand with only 200 μl ethanol added. One half of the surfaces in the Petri dishes were covered with 1 g treated sand, and the other half with 1 g untreated sand.
The prepared Petri dishes were then used to evaluate the repelling activity against Formosan subterranean termites. Ten worker termites were added to each Petri dish, and the dishes were covered to eliminate light. Five replicate dishes were tested for each concentration and for the control. Termite position was recorded every 15 min during the first hour of testing by counting the number of termites observed on untreated sand. After the first hour, termite position was recorded each hour for 3 hr.
Differences between the percent of termites on untreated sand and an expected value were statistically analyzed by a Chi-Square analysis, using an expected value of 50% and a significance level of p≦0.05.

ants = settings: previously discovered, U.S. Ser. No. 09/932,555; cited from earlier work
ticks = settings: previously discovered, U.S. Ser. No. 09/932,555; cited from earlier work
cockroaches = settings: previously discovered, U.S. Ser. No. 09/932,555; cited from earlier work

C=C(C)C1CCC2=CC(=O)CC(C)C2(C)C1 (centres unmarked) [Nootkatone, 4,4a,5,6,7,8-hexahydro-6-isopropenyl-4,4a-dimethyl-2(3H)-naphthalenone]
effect on fleas (fleas): not affected
percent of termites on untreated sand vs expected value of 50% (Chi-Square, p≦0.05) ([1]; 2 μg/dish, 0.25 hour): −
percent of termites on untreated sand vs expected value of 50% (Chi-Square, p≦0.05) ([1]; 2 μg/dish, 0.5 hour): −
percent of termites on untreated sand vs expected value of 50% (Chi-Square, p≦0.05) ([1]; 2 μg/dish, 0.75 hour): −
percent of termites on untreated sand vs expected value of 50% (Chi-Square, p≦0.05) ([1]; 2 μg/dish, 1 hour): −
percent of termites on untreated sand vs expected value of 50% (Chi-Square, p≦0.05) ([1]; 2 μg/dish, 2 hour): −
percent of termites on untreated sand vs expected value of 50% (Chi-Square, p≦0.05) ([1]; 2 μg/dish, 3 hour): −
percent of termites on untreated sand vs expected value of 50% (Chi-Square, p≦0.05) ([1]; 5 μg/dish, 0.25 hour): −
percent of termites on untreated sand vs expected value of 50% (Chi-Square, p≦0.05) ([1]; 5 μg/dish, 0.5 hour): −
percent of termites on untreated sand vs expected value of 50% (Chi-Square, p≦0.05) ([1]; 5 μg/dish, 0.75 hour): −
percent of termites on untreated sand vs expected value of 50% (Chi-Square, p≦0.05) ([1]; 5 μg/dish, 1 hour): −
percent of termites on untreated sand vs expected value of 50% (Chi-Square, p≦0.05) ([1]; 5 μg/dish, 2 hour): −
percent of termites on untreated sand vs expected value of 50% (Chi-Square, p≦0.05) ([1]; 5 μg/dish, 3 hour): −
percent of termites on untreated sand vs expected value of 50% (Chi-Square, p≦0.05) ([1]; 12.5 μg/dish, 0.25 hour): −
percent of termites on untreated sand vs expected value of 50% (Chi-Square, p≦0.05) ([1]; 12.5 μg/dish, 0.5 hour): −
percent of termites on untreated sand vs expected value of 50% (Chi-Square, p≦0.05) ([1]; 12.5 μg/dish, 0.75 hour): −
percent of termites on untreated sand vs expected value of 50% (Chi-Square, p≦0.05) ([1]; 12.5 μg/dish, 1 hour): −
percent of termites on untreated sand vs expected value of 50% (Chi-Square, p≦0.05) ([1]; 12.5 μg/dish, 2 hour): −
percent of termites on untreated sand vs expected value of 50% (Chi-Square, p≦0.05) ([1]; 12.5 μg/dish, 3 hour): −
percent of termites on untreated sand vs expected value of 50% (Chi-Square, p≦0.05) ([1]; 25 μg/dish, 0.25 hour): −
percent of termites on untreated sand vs expected value of 50% (Chi-Square, p≦0.05) ([1]; 25 μg/dish, 0.5 hour): −
percent of termites on untreated sand vs expected value of 50% (Chi-Square, p≦0.05) ([1]; 25 μg/dish, 0.75 hour): −
percent of termites on untreated sand vs expected value of 50% (Chi-Square, p≦0.05) ([1]; 25 μg/dish, 1 hour): −
percent of termites on untreated sand vs expected value of 50% (Chi-Square, p≦0.05) ([1]; 25 μg/dish, 2 hour): −
percent of termites on untreated sand vs expected value of 50% (Chi-Square, p≦0.05) ([1]; 25 μg/dish, 3 hour): −
percent of termites on untreated sand vs expected value of 50% (Chi-Square, p≦0.05) ([1]; 50 μg/dish, 0.25 hour): +
percent of termites on untreated sand vs expected value of 50% (Chi-Square, p≦0.05) ([1]; 50 μg/dish, 0.5 hour): −
percent of termites on untreated sand vs expected value of 50% (Chi-Square, p≦0.05) ([1]; 50 μg/dish, 0.75 hour): −
percent of termites on untreated sand vs expected value of 50% (Chi-Square, p≦0.05) ([1]; 50 μg/dish, 1 hour): +
percent of termites on untreated sand vs expected value of 50% (Chi-Square, p≦0.05) ([1]; 50 μg/dish, 2 hour): −
percent of termites on untreated sand vs expected value of 50% (Chi-Square, p≦0.05) ([1]; 50 μg/dish, 3 hour): −
percent of termites on untreated sand vs expected value of 50% (Chi-Square, p≦0.05) ([1]; 100 μg/dish, 0.25 hour): +
percent of termites on untreated sand vs expected value of 50% (Chi-Square, p≦0.05) ([1]; 100 μg/dish, 0.5 hour): +
percent of termites on untreated sand vs expected value of 50% (Chi-Square, p≦0.05) ([1]; 100 μg/dish, 0.75 hour): +
percent of termites on untreated sand vs expected value of 50% (Chi-Square, p≦0.05) ([1]; 100 μg/dish, 1 hour): +
percent of termites on untreated sand vs expected value of 50% (Chi-Square, p≦0.05) ([1]; 100 μg/dish, 2 hour): +
percent of termites on untreated sand vs expected value of 50% (Chi-Square, p≦0.05) ([1]; 100 μg/dish, 3 hour): +
concentration required for a significant effect of the treated sand on termite distribution ([1]; time periods greater than 1 hr): 100 μg/dish
activity against ants (ants): significant repellent and toxicant
activity against ticks (ticks): significant repellent and toxicant
activity against cockroaches (cockroaches): repellent
